Tested on: B-lymphocytes
Test: B-cell progenitor production by co-culture on OP9 stromal cells
Format: cell-based, human
Procedure: Co-Culture Systems Involving DLL4 Stromal or OP9 Stromal Cells for Production of B-Cell Progenitors
Co-culture systems generally used alpha-MEM medium supplemented with 10˜20% fetal calf serum (FCS), Penicillin Streptomycin, L-glutamine and 2-Mercaptoethanol (0.1 mM).
Stromal cells were seeded into an appropriate number of wells of a multi-well plate and allowed to grow until they reached confluency.
At around day 15, cells were transferred onto confluent layers of OP9 or OP9-DLL4 stromal cells and cultured in the following conditions:
Medium: alpha-MEM medium supplemented with 5˜10% FCS, penicillin streptomycin, L-glutamine and 2-mercaptoethanol (0.1 mM)
Cytokines: SCF (50 ng/mL) and DAPT (10 uM).
Media was changed every 4˜5 days.
Every 7˜10 days, the culture was passaged onto new wells coated with fresh layers of stromal cells.
As an alternative to using OP9 stromal cells expressing DLL4 (DLL4-0P9) for B-cell progenitor production according to Example 1, which requires addition of a NOTCH1 inhibitor such as DAPT to the culture medium to permit B-cell development, OP9 stromal cells (without DLL4) can also be used (FIG. 20). This system generates a larger number of B-cell progenitors (FIG. 20B), a small fraction of which (˜1%) are IgM^+ (FIG. 20B). This frequency of IgM^+ cells is similar to that seen with cord blood CD34^+ cells cultured in similar systems.

Compound: C[C@H](NC(=O)Cc1cc(F)cc(F)c1)C(=O)N[C@H](C(=O)OC(C)(C)C)c1ccccc1 [DAPT, N—[N-(3,5-difluorophenacetyl)-L-alanyl]-S-phenylglycine t-butyl ester]
- effect of presence of DAPT on development of B-lymphocytes (OP9 stromal cell co-culture, SCF (50 ng/mL) and DAPT (10 uM), from around day 15): enhances the development of B-lymphocytes
- effect of addition of DAPT on B-cell progenitor generation (OP9 stromal cells (without DLL4), FIG. 20): further enhanced
